Data set [1] deals with L929 mouse fibroblasts (DSMZ ACC 2). Nature of the data set: Growth inhibition assay (MTT), L929. The conditions noted are these: for IC50: Mus musculus; for Cytotoxicity / activity in words: Tables 1 and 2, cell line not given.
For data set [2], the system named is SW-480 human colon adenocarcinoma (ATCC CCL-228). Nature of the data set: Growth inhibition assay (MTT), SW-480. It counts as cell-based. Particulars: for IC50: SW480, 120 h, read-out: IC50 SW-480; for Activity in SW-480 compared with tubulysin D, in words: colon cancer cell line SW-480.
Data set [3] relates to KB-3-1 human cervix carcinoma (DSMZ ACC 158). In words: Growth inhibition assay (MTT), KB-3-1. The class given is cell-based. Particulars: KB 3-1, 120 h, read-out: IC50 KB-3-1.
[4] abbreviates: L929, 120 h, read-out: IC50 L929.

In brackets after ≈: the same amount, converted by molar mass. Like-named read-outs stand apart in the source and are kept apart here.

In the case of `CC[C@H](C)[C@H](NC(=O)[C@H]1CCCCN1C)C(=O)N(C)[C@H](C[C@@H](OC(C)=O)c1nc(C(=O)NC)cs1)C(C)C` (stereo in doubt) [Analogue 11, acetic acid 4-methyl-1-(4-methylcarbamoyl-thiazol-2-yl)-3-(methyl-{3-methyl-2-[(1-methyl-piperidine-2-carbonyl)-amino]-pentanoyl}-amino)-pentyl ester], the IC50 worked out at 1.7 ng/mL (≈ 3.08 nM) in data set [1] (setting [4]); 2 ng/mL (≈ 3.62 nM) in data set [1] (L929, read-out: Cytotoxicity stated in text); 0.5 ng/mL (≈ 0.906 nM) in data set [2] (Homo sapiens); 1.2 ng/mL (≈ 2.17 nM) in data set [3] (Homo sapiens).

For `CC[C@H](C)[C@H](N=[N+]=[N-])C(=O)N(COC(=O)CC(C)C)[C@H](C[C@@H](OC(C)=O)c1nc(C(=O)N[C@@H](Cc2ccccc2)C[C@H](C)C(=O)O)cs1)C(C)C` [Analogue 8, 4-[(2-{1-acetoxy-3-[(2-azido-3-metlzyl-pentanoyl)-(3-methylbutyryloxymethyl)-amino]-4-methyl-pentyl}-thiazole-4-carbonyl)-amino]-2-methyl-5-phenyl-pentanoic acid], the IC50 was 45 ng/mL (≈ 61.7 nM) in data set [1] (setting [4]), 8.8 ng/mL (≈ 12.1 nM) in data set [2] (Homo sapiens) and 40 ng/mL (≈ 54.9 nM) in data set [3] (Homo sapiens). Moreover, the “Cytotoxicity / activity in words” value in data set [1] is listed as “drastic decrease in activity”.

Turning to `CC[C@H](C)[C@H](NC(=O)[C@H]1CCCCN1C)C(=O)N(C)[C@H](C[C@@H](OC(C)=O)c1nc(C(=O)N[C@@H](Cc2ccccc2)C[C@H](C)C(=O)O)cs1)C(C)C` (stereo in doubt) [Analogue 10, 4-({2-[1-Acetoxy-4-methyl-3-(methyl-{3-methyl-2-[(1-methylpiperidine-2-carbonyl)-amino]-pentanoyl}-amino)-pentyl]-thiazole-4-carbonyl}-amino)-2-methyl-5-phenyl-pentanoic acid], the figures for the IC50 in data set [1] (setting [4]), in data set [2] (Homo sapiens) and in data set [3] (Homo sapiens) were 0.23 ng/mL (≈ 0.316 nM), 0.016 ng/mL (≈ 0.022 nM) and 0.13 ng/mL (≈ 0.179 nM), respectively. The “Fold less active than tubulysin D” value in data set [1] (cytotoxicity relative to tubulysin D) is on record as 4 fold. The “Activity in SW-480 compared with tubulysin D, in words” value in data set [2] was “more active than tubulysin D”.

With `CC[C@H](C)[C@H](NC(=O)CN(C)C)C(=O)N(COC(=O)CC(C)C)[C@H](C[C@@H](OC(C)=O)c1nc(C(=O)N[C@@H](Cc2ccccc2)C[C@H](C)C(=O)O)cs1)C(C)C` [Analogue 6, 4-[(2-{1-acetoxy-3-[[2-(2-dimethylamino-cetylamino)-3-methylpentanoyl]-(3-methyl-butyryloxymethyl)-amino]-4-methyl-pentyl}-thiazole-4-carbonyl)-amino]-2-methyl-5-phenyl-pentanoic acid], the IC50 in data set [1] (setting [4]) was determined as 0.04 ng/mL (≈ 0.0508 nM); in data set [2] (Homo sapiens), 0.01 ng/mL (≈ 0.0127 nM); in data set [3] (Homo sapiens) it was 0.029 ng/mL (≈ 0.0368 nM). Moreover, the “Cytotoxicity / activity in words” value in data set [1] was “essentially equipotent with tubulysin D”. Also, the “Activity in SW-480 compared with tubulysin D, in words” value in data set [2] was “more active than tubulysin D”.

With `CC[C@H](C)[C@H](NC(=O)[C@H]1CCCCN1C)C(=O)N(COC(=O)CC(C)C)[C@H](C[C@@H](OC(C)=O)c1nc(C(=O)NC)cs1)C(C)C` [Analogue 4, 3-methyl-butyric acid ({1-[2-acetoxy-2-(4-methylcarbamoyl-thiazol-2-yl) -ethyl]-2-methyl-propyl}-{3-methyl-2-[(1-methyl-piperidine-2-carbonyl)-amino]pentanoyl}-amino)-methyl ester], the values for the IC50 in data set [1] (setting [4]), in data set [2] (Homo sapiens) and in data set [3] (Homo sapiens) were 0.3 ng/mL (≈ 0.46 nM), 0.35 ng/mL (≈ 0.537 nM) and 0.22 ng/mL (≈ 0.337 nM), respectively. Moreover, the “Cytotoxicity / activity in words” value in data set [1] is on record as “maintained good activity”.

For the molecule `CC[C@H](C)[C@H](NC(C)=O)C(=O)N(COC(=O)CC(C)C)[C@H](C[C@@H](OC(C)=O)c1nc(C(=O)N[C@@H](Cc2ccccc2)C[C@H](C)C(=O)O)cs1)C(C)C` [Analogue 7, 4-[(2-{1-acetoxy-3-[(2-acetylamino-3-methyl-pentanoyl)-(3-methyl-butyryloxymethyl)-amino]-4-methyl-pentyl}-thiazole-4-carbonyl)-amino]-2-methyl-5-phenyl-pentanoic acid], the IC50 in data set [1] (setting [4]) came out at 120 ng/mL (≈ 161 nM); in data set [2] (Homo sapiens), 15 ng/mL (≈ 20.1 nM); in data set [3] (Homo sapiens) it was 80 ng/mL (≈ 107 nM). Besides, the “Cytotoxicity / activity in words” value in data set [1] is given as “drastic decrease in activity”.

Turning to `CC[C@H](C)[C@H](NC(=O)[C@H]1CCCCN1C)C(=O)N(COC(=O)CC(C)C)[C@H](C[C@@H](OC(C)=O)c1nc(C(=O)O)cs1)C(C)C` [Analogue 5, 2-[1-acetoxy-4-methyl-3-((3-methyl-butyryloxymethyl)-{3-methyl-2-[(1-methyl-piperidine-2-carbonyl)-amino]-pentanoyl}-amino)-pentyl]-thiazole-4-carboxylic acid], the IC50 was determined as 2.2 ng/mL (≈ 3.44 nM) in data set [1] (setting [4]), 0.35 ng/mL (≈ 0.548 nM) in data set [2] (Homo sapiens) and 1.5 ng/mL (≈ 2.35 nM) in data set [3] (Homo sapiens). In data set [1], the “Cytotoxicity / activity in words” value is given as “maintained good activity”.

As for `CC[C@H](C)[C@H](NC(=O)[C@H]1CCCCN1C)C(=O)N(COC(=O)CC(C)C)[C@H](C[C@@H](OC(C)=O)c1nc(C(=O)NCCCC(=O)O)cs1)C(C)C` [Analogue 3, 3-Methyl-butyric acid ((1-{2-acetoxy-2-[4-(3-carboxy-propylcarbamoyl)-thiazol-2-yl]-ethyl)-2-methyl-propyl)-{3-methyl-2-[(1-methyl-piperidine-2-carbonyl)-amino]-pentanoyl}-amino)-methyl ester], the figures for the IC50 in data set [1] (setting [4]), in data set [2] (Homo sapiens) and in data set [3] (Homo sapiens) were 3.5 ng/mL (≈ 4.83 nM), 0.91 ng/mL (≈ 1.26 nM) and 1.8 ng/mL (≈ 2.49 nM), respectively.

Turning to `CC[C@H](C)[C@H](NC(=O)[C@H]1CCCCN1C)C(=O)N(COC(=O)CC(C)C)[C@H](C[C@@H](OC(C)=O)c1nc(C(=O)N[C@@H](Cc2ccccc2)C[C@H](C)C(=O)O)cs1)C(C)C` [Analogue 1, Tubulysin D, reference compound], the IC50 in data set [1] (setting [4]) came out at 0.056 ng/mL (≈ 0.0676 nM); in data set [2] (human colon adenocarcinoma, MTT after 5 days), 0.022 ng/mL (≈ 0.0266 nM); in data set [3] (human cervix carcinoma, MTT after 5 days), 0.07 ng/mL (≈ 0.0845 nM).

`CC[C@H](C)[C@H](NC(=O)[C@H]1CCCCN1C)C(=O)N(COC(=O)CC(C)C)[C@H](C[C@@H](OC(C)=O)c1nc(C(=O)NCCc2ccccc2)cs1)C(C)C` [Analogue 2, 3-methyl-butyric acid ({1-[2-acetoxy-2-(4-phenethylcarbamoylthiazol-2-yl)-ethyl]-2-methyl-propyl}-{3-methyl-2-[(1-methyl-piperidine-2-carbonyl)-amino]-pentanoyl}-amino)-methyl ester]: the IC50 came out at 0.24 ng/mL (≈ 0.323 nM) in data set [1] (setting [4]), 0.3 ng/mL (≈ 0.404 nM) in data set [2] (Homo sapiens) and 0.25 ng/mL (≈ 0.337 nM) in data set [3] (Homo sapiens).

For the origin of these results see patent US20110263650A1 (priority 2007, published 2011).
